US20160199439A1, “Application of recombinant immunoregulatory protein of ganoderma lucidum in preparation of drug for treating focal cerebral ischemia” (priority 2013, published 2016)

Assays:
[1] = tested on: ED-1 positive cells; test: ED-1 positive cell expression in brain tissue (immunohistochemistry); format: in vivo, rat; settings: GM-1 group; after modeling for 8 days
Method: The rLZ-8 high-dosage group, the rLZ-8 middle-dosage group and the rLZ-8 low-dosage group were provided and prepared by physiological saline to respectively have a concentration of 70 μg·ml^−1, 35 μg·ml^−1 and 17.5 μg·ml^−1. ED-1 antibody was provided by Wuhan Boster Biological Technology Co., Ltd., and PV-6000 two-step method immunohistochemical detection reagent was provided by Beijing Zhongshan Golden Bridge Biotechnology Co., Ltd.
The sham operation group, the model group, the positive drug control group, the rLZ-8 high-dosage group (70 μg·kg^−1), the rLZ-8 middle-dosage group (35 μg·kg^−1) and the rLZ-8 low-dosage group (17.5 μg·kg^−1) were provided.
After being embedded by conventional paraffin and sectioned, a brain tissue paraffin section was tested through an immunologic tissue chemical staining method to test an ED-1 positive cell expression thereof. […]

[2] = Weights of rats with focal cerebral ischemia; format: in vivo, rat; settings: GM-1 group, in g (unit assumed)
Source text: Weighing rats before modeling; preparing rat focal cerebral ischemia models through a modified Zea Longa method; weighing the rats on the first postoperative day; and weighing the rats after consecutively administrating a drug for 7 days.

[3] = tested on: rat focal cerebral ischemia models; test: NSS grading (modified neurological severity scores, 16-point system) in rat focal cerebral ischemia models; format: in vivo; settings: GM-1 positive drug control group
Method: Preparing rat focal cerebral ischemia models through a modified Zea Longa method; grading the rats which were fully conscious after operation according to a modified NSS grading standard (16-point system); arranging a sham operation group, a model group, a positive drug control group, a rLZ-8 high-dosage group (70 μg·kg^−1), a rLZ-8 middle-dosage group (35 μg·kg^−1) and a rLZ-8 low-dosage group (17.5 μg·kg^−1); and injecting intraperitoneally, twice a day, wherein the same volume of physiological saline was injected into the sham operation group and the model group, for consecutive 7 days. A positive drug in the positive drug control group was the GM-1.

[4] = tested on: apoptotic cells; test: Test of apoptosis in brain tissue by TUNEL kit; format: in vivo, rat; settings: GM-1 group; after modeling for 8 days
Method: The rLZ-8 high-dosage group, the rLZ-8 middle-dosage group and the rLZ-8 low-dosage group were provided and prepared by physiological saline to respectively have a concentration of 70 μg·ml^−1, 35 μg·ml^−1 and 17.5 μg·ml^−1. TUNEL kit.
The sham operation group, the model group, the positive drug control group, the rLZ-8 high-dosage group (70 μg·ml^−1), the rLZ-8 middle-dosage group (35 μg·ml^−1) and the rLZ-8 low-dosage group (17.5 μg·ml^−1) were provided.
After being embedded by conventional paraffin and sectioned, a brain tissue paraffin section was processed according to instructions of the TUNEL kit. […]

monosialotetrahexosyl ganglioside sodium injection [GM-1]
ED-1 positive cell number [1]: 13.87 ± 2.39
Weights of rats ([2]; 0th day after modeling (before modeling)): 266.17 ± 21.21
Weights of rats ([2]; 1st day after modeling): 246.17 ± 21.99
Weights of rats ([2]; 8th day after modeling, drug for 7 days): 251.17 ± 40.31
NSS grading ([3]; 1st day): 4.33 ± 1.30
NSS grading ([3]; 2nd day): 3.92 ± 1.38
NSS grading ([3]; 3rd day): 3.58 ± 1.24
NSS grading ([3]; 4th day): 2.75 ± 1.09
NSS grading ([3]; 5th day): 2.50 ± 1.00
NSS grading ([3]; 6th day): 2.58 ± 1.08
NSS grading ([3]; 7th day): 2.41 ± 1.00
NSS grading ([3]; i.p. twice a day, 0th day, n=12): 4.75 ± 1.30
Apoptotic cell number (TUNEL) [4]: 23.10 ± 2.47
